Data set [1] deals with cytochrome P450 2C19 (Homo sapiens (Human), UniProt P33261). Nature of the data set: Cytochrome P450 2C19 inhibition. It is filed as in vitro ADME. To be noted: human liver microsomes, (S)-Mephenytoin hydroxylation; read-out: IC50 (CYP 2C19). The source says:
Assay for Determination of Cytochrome P450 2C19 Inhibition
(§1) (I=inhibitor concentration, S=slope factor, B=background activity)

The target in data set [2] is Human neutrophil elastase (Homo sapiens (Human), UniProt P08246). Briefly: Human Neutrophil Elastase Assay. It is filed as biochemical. The following applies: substrate MeOSuc-Ala-Ala-Pro-Val-AMC 250 μM, pH 7.5.
Description: The following buffers were used: Compound buffer: 100 mM Tris, 500 mM NaCl, adjusted to pH 7.5; Assay buffer: 100 mM Tris, 500 mM NaCl, adjusted to pH 7.5, containing 0.01% BSA.
Assay conditions: Test compounds were prediluted in DMSO and subsequently in compound buffer (5% DMSO final). […] After inactivation of the enzyme, fluorescence intensities were measured at 380 nm excitation and 460 nm emission wavelengths.
Each plate contains wells with a high value control (DMSO+enzyme+substrate) and wells with a low value control (DMSO+inactivated enzyme+substrate). IC50 values were estimated using a sigmoidal concentration response curve with variable slope. Means of low values were taken as 0%, means of high values as 100%.
Data set [3] deals with neutrophil elastase in zymosan-stimulated human plasma (Homo sapiens (Human), UniProt P08246). Nature of the data set: Neutrophil elastase inhibitory activity in human plasma. It is filed as biochemical. To be noted: human plasma from zymosan-stimulated blood.
Description: Assay for the Determination of Neutrophil Elastase Inhibitory Activity in Human Plasma
Citrated blood from human healthy donors is mixed with zymosan suspension and incubated at room temperature. This leads to the stimulation of neutrophils and the release of neutrophil elastase into the plasma. The stimulated blood is centrifuged to generate the neutrophil elastase enriched plasma.
Various concentrations of the neutrophil elastase inhibitor are incubated with plasma. […] A dose response curve is generated to calculate the EC50 of the inhibitor.
Data set [4] can be described thus: Drug transport across human Caco-2 cells. It is filed as in vitro ADME. The following applies: apparent permeability coefficient, Caco-2 monolayers, pH 7.2, 37° C.; for Papp A→B at 10 µM: apical-to-basal (absorptive), read-out: PEAB; for Papp B→A at 10 µM: basal-to-apical (secretory), read-out: PEBA. An excerpt: Assay for Determination of Drug Transport Across Human Caco-2 Cells
The assay provides information on the potential of a compound to pass the cell membrane, on the extent of oral absorption as well as on whether the compound is actively transported by uptake and/or efflux transporters. For the measurement of permeability across polarized, confluent human cancer colon carcinoma cells 2 (Caco-2) cell monolayers grown on permeable filter supports are used as the in vitro absorption model.
Apparent permeability coefficients (PE) of the compounds across the Caco-2 monolayers are measured (pH 7.2, 37° C.) in apical-to-basal (AB) (absorptive) and basal-to-apical (BA) (secretory) transport direction. AB permeability (PEAB) represents drug absorption from the intestine into the blood and BA permeability (PEBA) drug secretion from the blood back into the intestine via both passive permeability as well as active transport mechanisms mediated by efflux and uptake transporters that are expressed on the Caco-2 cells. The compounds are assigned to permeability/absorption classes by comparison of the AB permeabilities with the AB permeabilities of reference compounds with known in vitro permeability and oral absorption in the human. Identical or similar permeabilities in both transport directions indicate passive permeation, vectorial permeability points to additional active transport mechanisms. […] Active transport is concentration-dependently saturable.
Caco-2 cells (1-2*10^5 cells/cm^2 area) are seeded on filter inserts (Costar transwell polycarbonate or PET filters, 0.4 μm pore size) and cultured (DMEM) for 10 to 25 days. Compounds are dissolved in appropriate solvent (like DMSO, […] stock solutions). Stock solutions are diluted with HTP-4 buffer (128.13 mM NaCl, 5.36 mM KCl, 1 mM MgSO4, 1.8 mM CaCl2, 4.17 mM NaHCO3, 1.19 mM Na2HPO4x7H2O, 0.41 mM NaH2PO4xH2O, 15 mM HEPES, 20 mM glucose, pH 7.2) to prepare the transport solutions (typically 10 μM compound, final DMSO<=0.5%). The transport solution (TL) is applied to the apical or basolateral donor side for measuring A-B or B-A permeability (3 filter replicates), respectively. The receiver side contains HTP-4 buffer supplemented with 2% BSA. Samples are collected at the start and end of experiment from the donor and at various time intervals for up to 2 hours also from the receiver side for concentration measurement by LC-MS/MS or scintillation counting. Sampled receiver volumes are replaced with fresh receiver solution.
The apparent permeability coefficients (PEAB and PEBA) of selected compounds in the Caco-2 drug transport assay described above are listed in Table 16.
For orientation: Caco-2 cells form a polarised layer with tight junctions and transporters.

The nature of data set [5]: Aqueous solubility (Shaked Flask Method). To be noted: aqueous buffer, thermodynamic from solid, pH 6.8. It is filed as physicochemical. The procedure:
Assay for Determination of Aqueous Solubility (“Shaked Flask Method”)
Saturated solutions are prepared in well plates by adding an appropriate volume of selected aqueous media (typically in the range of 0.25-1.5 ml) into each well which contains a known quantity of solid drug substance (typically in the range 0.5-5.0 mg). The wells are shaken or stirred for a predefined time period (typically in a range of 2-24 h) and then filtered using appropriate filter membranes (typically PTFE-filters with 0.45 μm pore size). Filter absorption is avoided by discarding the first few drops of filtrate. The amount of dissolved drug substance is determined by UV spectroscopy or by HPLC with UV-detection. In addition, the pH of the aqueous saturated solution is measured using a glass-electrode pH meter.

Data set [6] is described as follows: Metabolic stability with human liver microsomes. It is filed as in vitro ADME. To be noted: pH 7.6; pooled human liver microsomes, 1 μM test compound, 37° C.; read-out: t1/2 INVITRO. On the technique in general: Microsomes from liver hold many membrane-bound enzymes, among them those of drug oxidation.
Data set [7] addresses cytochrome P450 2C9 (Homo sapiens (Human), UniProt P11712). Briefly: Cytochrome P450 2C9 inhibition. It is filed as in vitro ADME. To be noted: human liver microsomes, Diclofenac hydroxylation; read-out: IC50 (CYP 2C9).
From the text: Assay for Determination of Cytochrome P450 2C9 Inhibition
as §1

In data set [8] the target is cytochrome P450 2C8 (Homo sapiens (Human), UniProt P10632). Briefly: Cytochrome P450 2C8 inhibition. It is filed as in vitro ADME. To be noted: human liver microsomes, Amodiaquine deethylation; read-out: IC50 (CYP 2C8).
From the text: Assay for Determination of Cytochrome P450 2C8 Inhibition
as §1

In data set [9] the target is hERG (human ether-a-go-go-related gene) potassium channel (Homo sapiens (Human), UniProt Q12809). Nature of the data set: hERG inhibition patch clamp assay. It is filed as cell-based. For orientation: Block of hERG is tested as a sign of cardiac risk.
Data set [10] addresses hERG potassium channel (Homo sapiens (Human), UniProt Q12809). Nature of the data set: hERG inhibition patch clamp assay. It is filed as cell-based. The following applies: human, @ 10 μM.

Chain of cytochrome P450 2C19 (P33261 whole entry): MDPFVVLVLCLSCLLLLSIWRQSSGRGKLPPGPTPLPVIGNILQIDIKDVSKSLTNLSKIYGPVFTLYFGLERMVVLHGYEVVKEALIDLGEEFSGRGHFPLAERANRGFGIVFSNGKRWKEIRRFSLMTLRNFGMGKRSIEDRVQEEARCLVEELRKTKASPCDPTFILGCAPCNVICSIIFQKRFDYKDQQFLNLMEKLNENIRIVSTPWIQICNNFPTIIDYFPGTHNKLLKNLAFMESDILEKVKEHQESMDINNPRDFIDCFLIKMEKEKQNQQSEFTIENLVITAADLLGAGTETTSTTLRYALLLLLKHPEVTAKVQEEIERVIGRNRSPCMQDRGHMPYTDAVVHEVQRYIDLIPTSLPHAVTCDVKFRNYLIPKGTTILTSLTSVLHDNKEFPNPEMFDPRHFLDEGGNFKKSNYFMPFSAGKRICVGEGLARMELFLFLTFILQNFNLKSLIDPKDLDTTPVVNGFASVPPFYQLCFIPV
Chain of cytochrome P450 2C8 (P10632 whole entry): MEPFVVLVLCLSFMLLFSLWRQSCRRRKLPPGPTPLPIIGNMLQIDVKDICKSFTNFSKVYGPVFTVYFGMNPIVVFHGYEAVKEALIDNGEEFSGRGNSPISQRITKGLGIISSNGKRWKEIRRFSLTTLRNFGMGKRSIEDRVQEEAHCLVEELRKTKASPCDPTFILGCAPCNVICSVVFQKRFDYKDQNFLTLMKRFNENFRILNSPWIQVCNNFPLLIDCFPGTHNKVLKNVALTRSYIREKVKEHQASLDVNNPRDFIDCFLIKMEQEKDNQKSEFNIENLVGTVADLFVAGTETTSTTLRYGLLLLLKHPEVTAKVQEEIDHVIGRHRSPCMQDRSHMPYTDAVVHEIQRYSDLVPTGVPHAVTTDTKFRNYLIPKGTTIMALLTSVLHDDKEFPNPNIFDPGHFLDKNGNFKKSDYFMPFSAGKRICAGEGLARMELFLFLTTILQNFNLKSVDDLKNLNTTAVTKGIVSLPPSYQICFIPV
Chain of cytochrome P450 2C9 (P11712 whole entry): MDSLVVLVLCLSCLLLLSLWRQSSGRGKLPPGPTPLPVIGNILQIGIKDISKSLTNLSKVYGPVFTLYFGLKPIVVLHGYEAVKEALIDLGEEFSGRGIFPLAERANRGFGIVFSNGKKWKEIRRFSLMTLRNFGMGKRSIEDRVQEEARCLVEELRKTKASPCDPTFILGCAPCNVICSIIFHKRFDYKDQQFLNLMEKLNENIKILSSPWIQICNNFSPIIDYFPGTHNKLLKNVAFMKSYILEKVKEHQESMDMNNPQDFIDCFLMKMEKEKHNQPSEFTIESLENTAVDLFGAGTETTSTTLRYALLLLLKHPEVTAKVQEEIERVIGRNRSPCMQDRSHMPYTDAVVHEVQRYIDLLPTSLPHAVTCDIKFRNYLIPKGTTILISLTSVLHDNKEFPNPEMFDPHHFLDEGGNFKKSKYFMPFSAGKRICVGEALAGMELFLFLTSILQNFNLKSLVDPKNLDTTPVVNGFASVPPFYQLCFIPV
Chain of hERG (human ether-a-go-go-related gene) potassium channel (Q12809 whole entry): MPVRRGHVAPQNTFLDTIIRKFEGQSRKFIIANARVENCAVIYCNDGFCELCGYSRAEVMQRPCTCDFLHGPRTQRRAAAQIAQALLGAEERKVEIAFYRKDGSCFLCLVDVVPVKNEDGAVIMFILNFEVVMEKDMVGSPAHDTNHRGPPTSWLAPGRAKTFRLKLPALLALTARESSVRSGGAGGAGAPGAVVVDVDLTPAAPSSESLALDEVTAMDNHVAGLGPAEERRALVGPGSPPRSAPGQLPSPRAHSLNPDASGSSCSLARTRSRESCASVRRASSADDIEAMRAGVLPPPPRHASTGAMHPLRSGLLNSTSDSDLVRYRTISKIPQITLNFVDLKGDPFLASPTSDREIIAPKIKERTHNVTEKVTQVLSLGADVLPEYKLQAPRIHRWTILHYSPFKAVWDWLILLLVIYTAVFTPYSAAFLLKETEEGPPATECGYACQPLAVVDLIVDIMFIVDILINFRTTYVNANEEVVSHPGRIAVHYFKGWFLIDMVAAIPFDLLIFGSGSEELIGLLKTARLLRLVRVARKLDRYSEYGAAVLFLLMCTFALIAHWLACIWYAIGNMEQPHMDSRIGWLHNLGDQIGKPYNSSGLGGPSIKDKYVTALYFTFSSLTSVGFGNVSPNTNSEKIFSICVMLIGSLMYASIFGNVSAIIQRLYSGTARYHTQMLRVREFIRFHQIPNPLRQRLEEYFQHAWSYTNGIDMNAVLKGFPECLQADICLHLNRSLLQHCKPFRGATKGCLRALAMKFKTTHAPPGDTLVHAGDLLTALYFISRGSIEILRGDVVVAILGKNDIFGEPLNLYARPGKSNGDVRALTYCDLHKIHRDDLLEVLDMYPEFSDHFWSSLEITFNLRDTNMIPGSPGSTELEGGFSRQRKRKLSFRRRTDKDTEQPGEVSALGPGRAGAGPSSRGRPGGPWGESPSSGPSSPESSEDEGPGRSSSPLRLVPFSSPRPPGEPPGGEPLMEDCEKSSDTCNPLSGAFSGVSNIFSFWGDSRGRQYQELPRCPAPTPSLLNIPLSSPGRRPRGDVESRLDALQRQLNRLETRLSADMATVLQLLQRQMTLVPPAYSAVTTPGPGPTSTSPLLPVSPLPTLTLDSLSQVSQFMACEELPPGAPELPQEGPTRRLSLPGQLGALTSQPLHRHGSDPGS
Chain of hERG potassium channel (Q12809 whole entry): as above
Chain of neutrophil elastase in zymosan-stimulated human plasma (P08246 30-247): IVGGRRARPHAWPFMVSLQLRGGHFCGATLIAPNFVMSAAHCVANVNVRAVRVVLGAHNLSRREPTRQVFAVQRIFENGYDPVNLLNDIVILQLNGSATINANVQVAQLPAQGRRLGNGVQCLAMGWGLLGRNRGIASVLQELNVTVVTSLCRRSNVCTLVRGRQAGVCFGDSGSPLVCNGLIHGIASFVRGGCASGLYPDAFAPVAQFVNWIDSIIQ
Chain of Human neutrophil elastase (P08246 30-247): as above

With `CN1C(=O)N(c2cccc(C(F)(F)F)c2)C2=C(C(=O)CC2)[C@H]1c1ccc(C#N)cc1-c1ccc(=O)n(C)c1` [Example 23, 4-[(R)-3-Methyl-2,5-dioxo-1-(3-trifluoromethyl-phenyl)-2,3,4,5,6,7-hexahydro-1H-cyclopentapyrimidin-4-yl]-3-(1-methyl-6-oxo-1,6-dihydro-pyridin-3-yl)-benzonitrile], the IC50 in [1] was more than 50 µM; in data set [2], less than 0.001 µM; in data set [7] it was more than 50 µM; in [8], more than 50 µM; in data set [9], more than 30 µM. Also, in [3], the EC50 was found to be 0.001 µM. In [4], the Papp A→B at 10 µM is 6.6 ×10⁻⁶ cm/s. For the same compound, the Papp B→A at 10 µM in data set [4] stood at 87 ×10⁻⁶ cm/s. In data set [5], this compound showed a solubility of more than 10 µg/mL. Besides, in data set [6], the half-life at 1 μM was more than 2.17 h. In [10], this compound returned an inhibition at 10 µM of 5%.

Turning to `CN1C(=O)N(c2cccc(C(F)(F)F)c2)C2=C(C(=O)CC2)[C@H]1c1ccc(C#N)cc1C(N)=O` [Example 2, 5-Cyano-2-[(R)-3-methyl-2,5-dioxo-1-(3-trifluoromethyl-phenyl)-2,3,4,5,6,7-hexahydro-1H-cyclopentapyrimidin-4-yl]-benzamide], the IC50 in data set [1] is more than 50 µM; in data set [2] it was 0.0024 µM; in data set [7], more than 50 µM; in data set [8] it was more than 50 µM; in [9], more than 30 µM. Besides, a half-maximal response in [3] (EC50) required 0.001 µM. In addition, in data set [4], the Papp A→B at 10 µM came out at 4.8 ×10⁻⁶ cm/s. Further, the Papp B→A at 10 µM in data set [4] worked out at 51 ×10⁻⁶ cm/s. The solubility in data set [5] is more than 10 µg/mL. Moreover, the half-life at 1 μM in data set [6] is more than 2.17 h. The compound also displayed an inhibition at 10 µM in [10] of 4%.

As for `CN1C(=O)N(c2cccc(C(F)(F)F)c2)C2=C(C(=O)CC2)[C@H]1c1ccc(C#N)cc1CNC(C)(C)C` [Example 24, 3-(tert-Butylamino-methyl)-4-[(R)-3-methyl-2,5-dioxo-1-(3-trifluoromethyl-phenyl)-2,3,4,5,6,7-hexahydro-1H-cyclopentapyrimidin-4-yl]-benzonitrile], the IC50 in [1] is more than 50 µM; in [2], 0.0019 µM; in data set [7], more than 50 µM; in data set [8] it was more than 50 µM; in [9] it was more than 30 µM. The same compound came in with a concentration giving a half-maximal response (EC50) in [3] of 0.007 µM. The Papp A→B at 10 µM in [4] was 21 ×10⁻⁶ cm/s. Also, the Papp B→A at 10 µM in [4] came out at 84 ×10⁻⁶ cm/s. The compound further had a solubility in data set [5] of more than 10 µg/mL. In [6], the half-life at 1 μM is more than 2.17 h. For the same compound, 10 µM produced 7% inhibition in [10].

In general, IC50 refers to the midpoint of a concentration-inhibition curve. A word on the EC50: it is the concentration needed to bring the measured effect to its halfway point. Usually solubility stands for how much of the substance goes into solution per volume. A low value points to a poorly soluble substance. As a reminder, the inhibition is the relative decrease from the control value, in per cent. A high value points to a strong effect.

(Values after patent US9458113B2 (Boehringer Ingelheim International GmbH, priority 2014, dated 2016).)
